Test in all cases: NCI anticancer screen, dose series, 48 h
Assay [1] has as its system A549 NSCLC.
Assay [2] has as its system DU-145 prostate.
In assay [3] the test system is HCT-15 colon.
The subject of assay [4] is HT29 colon.
Assay [5] deals with SF-539 CNS.
Assay [6] deals with SK-MEL-2 melanoma.
Assay [7] has as its system SK-MEL-5 melanoma.
The subject of assay [8] is SN12C renal.
The subject of assay [9] is SNB-19 CNS.
The subject of assay [10] is U251 CNS.

Where “and” joins values, the source holds several entries; their conditions need not be identical. Identical values can stand only once.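 Cultured in 96-well plates, cells were exposed to test compound for 48 hours across five concentrations. GI50 is the concentration that inhibits growth by half. Definition used: TGI = concentration required for complete inhibition of growth.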

Experimental findings from PubChem BioAssay (NCI) are described below.

`COc1ccc(-c2ccncc2)cc1C(N)=O`: the GI50 in assay [1], in assay [2], in assay [3], in assay [4], in assay [5] and in assay [6] was greater than 25 µM each time. The GI50 in assay [7], in [8], in assay [9] and in assay [10] was greater than 25 µM each time. The TGI in assay [1], in assay [2], in [3], in assay [4], in [5] and in assay [6] was greater than 25 µM in each case. For the same compound, the TGI in assay [7], in assay [8], in assay [9] and in assay [10] was greater than 25 µM each time.
As to `Cc1nc(-c2ccccc2)n2nc(NCCCN3CCOCC3)ncc12`, the GI50 in assay [1] was greater than 25 µM; in [2], 22.7 µM; in [3], 12.8 µM; in assay [4], greater than 25 µM; in assay [5] it was greater than 25 µM; in [6], 10.5 µM. For the same compound, the GI50 in [7] is greater than 16.7 µM; in assay [8], greater than 25 µM; in [9] it was greater than 25 µM; in assay [10] it was greater than 25 µM. For the same compound, the TGI in [1], in assay [2], in [3], in [4], in [5] and in [6] was greater than 25 µM in each case. Besides, the TGI in assay [7], in [8], in assay [9] and in [10] was greater than 25 µM throughout.
Take `CN(CCCCCl)P(=O)(OCCS(=O)(=O)CC(NC(=O)CCC(N)C(=O)O)C(=O)NC(C(=O)O)c1ccccc1)OCC1OC(n2ccc(N)nc2=O)C(F)(F)C1O` (stereo not drawn): the GI50 in assay [1] was 0.125 µM; in [2], 0.0359 µM; in [3], 8.92 µM; in [4], 0.586 µM; in [5], 0.0338 µM; in [6] it was greater than 63.7 µM. Besides, the GI50 in assay [7] was 0.484 µM; in assay [8], 0.59 µM; in [9], 0.143 µM; in [10] it was 0.23 µM. Further, the TGI in [1] was greater than 100 µM; in assay [2], 25.9 µM; in assay [3], greater than 100 µM; in assay [4], greater than 100 µM; in [5], 0.689 µM; in [6], greater than 100 µM. Moreover, the TGI in [7] was greater than 100 µM; in assay [8], greater than 50.9 µM; in assay [9], greater than 100 µM; in assay [10], greater than 100 µM.
As for `Cc1ncc(C(=O)Nc2ccc(CN3CCN(C)CC3)c(C(F)(F)F)c2)cc1C#Cc1cnc2cccnn12`, the GI50 in [1] is 0.32 µM; in assay [2] it was 0.413 µM; in assay [3], 0.593 µM; in [4], 0.199 µM; in [5], 0.485 µM; in assay [6], 0.335 µM. Besides, the GI50 was 0.595 µM in assay [7], 0.288 µM in assay [8], 1.22 µM in [9] and 0.727 µM in assay [10]. Besides, the TGI in assay [1] turned out to be 1.53 µM; in assay [2] it was 2.17 µM; in assay [3], 4.45 µM; in assay [4], 14.5 µM; in assay [5], 1.18 µM; in assay [6], 1.54 µM. The TGI in assay [7] came out at 1.26 µM; in assay [8], 3.94 µM; in [9], 5.63 µM; in assay [10], 2.6 µM.
On to `COc1cc(OC)c(C(=O)/C=C/c2cc3c(cc2OCc2ccccc2)OC(C)(C)CC3)cc1CC=C(C)C`, for which the GI50 in assay [1] was 8.92 µM; in assay [2], 5.95 µM; in assay [3] it was 3.84 µM; in assay [4], 3.57 µM; in [5], 4.53 µM; in assay [6] it was 6.84 µM. Moreover, the GI50 was 3.33 µM in [7], 7.36 µM in [8], 6.22 µM in assay [9] and 4.03 µM in assay [10]. Moreover, the TGI is greater than 25 µM in assay [1]; greater than 25 µM in assay [2]; 9.68 µM in assay [3]; 8.92 µM in assay [4]; 8.8 µM in [5]; greater than 25 µM in assay [6]. Besides, the TGI in assay [7] is 6.53 µM; in assay [8] it was greater than 25 µM; in assay [9] it was 17.3 µM; in assay [10] it was 10.8 µM.
Take `CCCCCCCCCCCCCCCCCC1=NC(C)(C)CN1CC(C)O` (stereo not drawn): the GI50 is 3 µM in assay [1]; 3.66 µM in [2]; 1.88 µM in assay [3]; 3.02 µM in assay [4]; 4.03 µM in assay [5]; 15.6 µM in [6]. Besides, the GI50 in [7] is 17.4 µM; in assay [8] it was 10.5 µM; in assay [9] it was 7.08 µM; in assay [10], 4.89 µM. Moreover, the TGI came to 7.12 µM in assay [1]; 13.1 µM in assay [2]; 3.95 µM in assay [3]; 7.42 µM in assay [4]; 19.1 µM in assay [5]; 31 µM in assay [6]. The TGI is 32 µM in [7], 24.4 µM in assay [8], 31.5 µM in [9] and 19.9 µM in [10].
In the case of `C=CCn1c(C)nc2ccc(Nc3nc(Nc4ccc(F)cc4)nc4ccccc34)cc21`, the GI50 was 4.18 µM in assay [1]; 8.63 µM in [2]; 2.84 µM in assay [3]; 3 µM in assay [4]; 12.3 µM in assay [5]; 3.16 µM in assay [6]. Moreover, the GI50 was 1.36 µM in assay [7], 2.78 µM in assay [8], 9 µM in [9] and 3.15 µM in assay [10]. Further, the TGI in assay [1] was 22.2 µM; in [2], 22.8 µM; in assay [3], 10.4 µM; in assay [4], 13.3 µM; in assay [5] it was 25.7 µM; in assay [6], 11.4 µM. Moreover, the TGI in assay [7] worked out at 2.64 µM; in assay [8] it was 15.1 µM; in assay [9], 23.8 µM; in [10] it was 14.9 µM.
In the case of `COc1ccc(NC(=O)CSC2=C(Nc3cccc(Br)c3)C(=O)N(Cc3ccccc3)C2=O)cc1Cl`, the GI50 in assay [1] was 62.4 µM; in [2], greater than 100 µM; in assay [3], greater than 100 µM; in [4], greater than 100 µM; in [5], greater than 100 µM; in assay [6], greater than 100 µM. Further, the GI50 in assay [7] was 16.8 µM; in [8], greater than 100 µM; in assay [9], greater than 100 µM; in [10], 35.5 µM. Further, the TGI in assay [1], in assay [2], in [3], in assay [4], in [5] and in assay [6] was greater than 100 µM each time. The TGI in [7], in [8], in assay [9] and in assay [10] was greater than 100 µM throughout.
In the case of `CC(C)Nc1cc(-c2c[nH]c(C(=O)N[C@H](CO)c3cccc(Cl)c3)c2)c(Cl)cn1`, the GI50 in [1] is 2.33 µM and 0.919 µM; in assay [2], 5.96 µM and 9.49 µM; in assay [3] it was 2.89 µM and 2.68 µM; in assay [4] it was 0.0894 µM and 0.0951 µM; in assay [5], 6.04 µM; in assay [6] it was 0.18 µM and 0.179 µM. The GI50 is 0.64 µM and 0.752 µM in assay [7]; 4.04 µM and > 4.03 µM in [8]; 4.84 µM in assay [9]; 1.71 µM and 1.09 µM in assay [10]. In addition, the TGI was 20.3 µM and > 10 µM in assay [1]; 20.4 µM and > 10 µM in assay [2]; 14.4 µM and > 10 µM in assay [3]; 11.6 µM and > 10 µM in [4]; 20.2 µM and > 10 µM in assay [5]; 0.75 µM and 1.41 µM in [6]. Moreover, the TGI in assay [7] was 7.82 µM and 9.83 µM; in assay [8], 20.9 µM and > 10 µM; in assay [9], 20.6 µM and > 10 µM; in assay [10], 18 µM and > 10 µM.
As to `O=S(=O)(NC1=NCCN1C(=S)SN1CCn2c1nsc2=S)c1cccc2ccccc12`, the GI50 was 35.2 µM in assay [1]; 19.3 µM in [2]; 26.3 µM in assay [3]; 31.4 µM in assay [4]; 21.1 µM in [5]; 17.5 µM in assay [6]. The GI50 was 19.1 µM in assay [7], 17.2 µM in [8], 62.3 µM in assay [9] and 20.6 µM in [10]. Also, the TGI in assay [1] is greater than 100 µM; in assay [2], 49.2 µM; in [3] it was greater than 100 µM; in assay [4], greater than 100 µM; in [5], 46 µM; in [6] it was 44.1 µM. Further, the TGI in assay [7] is 54.4 µM; in assay [8], 37.6 µM; in assay [9] it was greater than 100 µM; in [10], 49.9 µM.
Consider `COc1ccc2c(=O)cc(-c3ccccc3)[nH]c2c1`, for which the GI50 in assay [1] is 0.67 µM; in assay [2], 1.24 µM; in assay [3], 0.518 µM; in [4], 0.379 µM; in [5] it was 0.584 µM; in assay [7], 0.323 µM. The GI50 was 3.16 µM in assay [8], 1.75 µM in assay [9] and 0.707 µM in assay [10]. Moreover, the TGI was greater than 53.1 µM in assay [2]; greater than 100 µM in [3]; greater than 100 µM in assay [4]; 3.37 µM in assay [5]; greater than 100 µM in assay [6]; 7.4 µM in [7]. Further, the TGI in assay [8], in assay [9] and in assay [10] was greater than 100 µM throughout.
Take `CCNc1cc(-c2cccc(OC(F)(F)F)c2)nc2ccc(N3CCCC3)cc12`: the GI50 in assay [1] is 2.68 µM; in assay [2] it was 2.2 µM; in [3] it was 1.71 µM; in assay [4] it was 2.18 µM; in assay [5] it was 1.73 µM; in assay [6] it was 1.81 µM. The GI50 is 1.51 µM in assay [7], 1.7 µM in assay [8], 3.12 µM in assay [9] and 1.68 µM in assay [10]. Moreover, the TGI in assay [1] stood at 10.5 µM; in [2] it was 5.88 µM; in assay [3], 5.96 µM; in assay [4] it was 10.3 µM; in [5], 3.36 µM; in assay [6] it was 3.54 µM. For the same compound, the TGI in assay [7] was 2.84 µM; in assay [8], 3.97 µM; in assay [9] it was 10.9 µM; in assay [10], 3.62 µM.
`C=CCNc1nc2c(s1)C(=O)c1ccccc1C2=O`: the TGI amounted to 19.3 µM in assay [1]; 35.6 µM in assay [2]; 30.7 µM in [3]; 50.2 µM in [4]; 16.7 µM in assay [5]; 25.9 µM in assay [6]. Also, the TGI in [7] came to 3.1 µM; in [8], 27.4 µM; in assay [9], 19.2 µM; in assay [10] it was 20.1 µM.
`NCCSSCCN`: the TGI in assay [1], in assay [2], in assay [3], in [4], in assay [5] and in assay [6] was greater than 100 µM each time. In addition, the TGI in assay [7], in [8], in assay [9] and in [10] was greater than 100 µM in each case.
For `COC(=O)c1cc2c3ccccc3n3c(=O)c4cc5ccc(N(S(=O)(=O)c6ccc(C)cc6)S(=O)(=O)c6ccc(C)cc6)cc5nc4c(n1)c23`, the GI50 is greater than 100 µM in assay [1]; greater than 100 µM in [2]; greater than 100 µM in [3]; greater than 100 µM in assay [4]; 25.4 µM in [5]; 25.9 µM in assay [6]. Moreover, the GI50 in [7] is greater than 100 µM; in [8] it was greater than 100 µM; in assay [9], 26.6 µM; in [10], 10.1 µM. In addition, the TGI in [1], in [2], in assay [3], in assay [4], in [5] and in assay [6] was greater than 100 µM in each case. Besides, the TGI in assay [7] was greater than 100 µM; in assay [8], greater than 100 µM; in [9], 78.3 µM; in assay [10], 45.2 µM.
